# From patent US4614714A (priority 1982, dated 1986)
# Entries after “also recorded” stand apart in the source; their conditions may differ. Structures can show the parent of a compound that is named as a salt. Where two headings read alike, the source gives them in different places.
# Tests used:
# [1] = biological target: T1, novel L-glutamic acid oxidase (Streptomyces sp, UniProt Q8L3C7); assay: Effects of various additives on the activity of the novel enzyme; format: biochemical, Streptomyces sp. X-119-6; design: from the cultured product of an actinomycete newly isolated from a soil sample; made in house; host or cells: cultured product of the natural (non-recombinant) actinomycete strain, purified
# T1 sequence (Q8L3C7 15-390 limits assumed): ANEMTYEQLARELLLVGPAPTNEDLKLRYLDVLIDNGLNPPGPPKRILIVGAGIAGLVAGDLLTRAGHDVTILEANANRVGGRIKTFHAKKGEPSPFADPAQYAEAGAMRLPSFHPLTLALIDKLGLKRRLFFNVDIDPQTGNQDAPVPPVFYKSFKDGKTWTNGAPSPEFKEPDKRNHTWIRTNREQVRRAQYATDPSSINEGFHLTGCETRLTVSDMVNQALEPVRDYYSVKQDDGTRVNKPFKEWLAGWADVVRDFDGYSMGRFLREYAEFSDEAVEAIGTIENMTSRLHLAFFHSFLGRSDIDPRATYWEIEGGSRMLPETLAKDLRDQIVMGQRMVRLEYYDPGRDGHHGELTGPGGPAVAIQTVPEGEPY
# T1 sequence (Q8L3C7 391-520 limits assumed): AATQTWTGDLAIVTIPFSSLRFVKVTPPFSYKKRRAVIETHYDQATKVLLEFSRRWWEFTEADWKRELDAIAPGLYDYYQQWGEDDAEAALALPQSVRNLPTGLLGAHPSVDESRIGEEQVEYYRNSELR
# T1 sequence (Q8L3C7 521-701 limits assumed): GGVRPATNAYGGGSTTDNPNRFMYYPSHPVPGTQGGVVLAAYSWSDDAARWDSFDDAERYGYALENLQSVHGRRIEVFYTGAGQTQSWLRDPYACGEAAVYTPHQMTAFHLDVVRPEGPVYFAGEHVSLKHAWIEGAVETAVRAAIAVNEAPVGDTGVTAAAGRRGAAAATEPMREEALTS
# [2] = biological target: T1, novel L-glutamic acid oxidase; assay: Substrate specificity of the novel enzyme, oxygen electrode method
# Method: The concentration of each substrate was 10 mM, and the reactions were carried out at pH 7.4 (0.1 M potassium phosphate buffer) and pH 6.0 (0.1 M acetate buffer).
# That is, 1 ml of 0.1 M potassium phosphate buffer (pH 7.4) containing 10 mM sodium L-glutamate was charged into an oxygen electrode cell and 10 μl of an enzyme solution was added thereto to measure the oxygen consumption rate. One unit of enzyme was determined as the amount of enzyme which consumes 1μ mol of oxygen per minute at 30° C. in the absence of catalase (unit: hereinafter abbreviated as "U").
# [3] = biological target: T2, immobilized L-glutamic acid oxidase (Streptomyces sp, UniProt Q8L3C7); assay: Responses of the L-glutamic acid sensor of Example C1 to various amino acids; format: biochemical, Streptomyces sp. X-119-6
# T2 construct: from the cultured product of an actinomycete newly isolated from a soil sample; made in house; host or cells: cultured product of the natural (non-recombinant) actinomycete strain; immobilized on a Cellophane membrane with glutaraldehyde
# T2 sequence (Q8L3C7 15-390 limits assumed): T1 sequence (Q8L3C7 15-390 limits assumed)
# T2 sequence (Q8L3C7 391-520 limits assumed): T1 sequence (Q8L3C7 391-520 limits assumed)
# T2 sequence (Q8L3C7 521-701 limits assumed): T1 sequence (Q8L3C7 521-701 limits assumed)
# Method: In FIG. 18, the sample solution 2 injected through inlet 1 is transferred by a peristaltic pump 4 together with oxygen saturated buffer 3 into a cell 5.
# The results obtained by the measurement are shown as relative responses. The reaction was carried out in 0.1M of acetic acid-sodium acetate buffer at pH 5.5 and 30° C.
# [4] = tested on: glutamic acid oxidase (known enzyme); settings: cited from earlier work; for activity of the known enzyme: relative to L-glutamic acid
# [5] = tested on: lyophilized cell of E. coli, which exhibits L-glutamic acid decarboxylase activity; settings: microorganism electrode, cited from earlier work; for Relative sensitivity ratio: glutamic acid = 100
# [6] = additive 1 mM, pH 7.4, no addition = 100
# [7] = additive 1 mM, pH 7.4, no addition = 100, read-out: Relative activity
# [8] = pH 6, read-out: Relative Activity (%) pH 6.0
# [9] = pH 7.4, read-out: Relative Activity (%) pH 7.4
# [10] = pH 5.5; read-out: Relative response (%)
# [11] = pH 6, read-out: Relative Activity (%) pH 6.0, substrate 10 mM, pH 6.0 (0.1 M acetate buffer), relative to L-glutamic acid
# [12] = pH 7.4, read-out: Relative Activity (%) pH 7.4, substrate 10 mM, pH 7.4 (0.1 M potassium phosphate buffer), relative to L-glutamic acid
# [13] = pH 5.5, read-out: Relative response (%)
smiles,measurement,setting,value
[F-].[Na+] [NaF],Relative activity,[1]; [6],107.6
"c1ccc(-c2ccccn2)nc1 [α,α'-dipyridyl]",activity at 1000 µM,[1]; [7],94.4%
C[C@@H](O)[C@H](N)C(=O)O [L-Threonine],activity at 10000 µM,[2]; [8],< 0.1%
same,activity at 10000 µM,[2]; [9],< 0.1%
same,activity at 2000 µM,[3]; [10],< 0.1%
N[C@@H](CCC(=O)O)C(=O)O [L-Glutamic acid],activity at 10000 µM,[2]; [8],100%
same,activity at 10000 µM,[2]; [9],100%
same,activity at 2000 µM,[3]; [10],100%
NC(=O)CC[C@H](N)C(=O)O [L-Glutamine],activity at 10000 µM,[2]; [11],< 0.1%
same,activity of the novel enzyme (in words),[2]; pH 7.4,substantially no activity
same,activity at 10000 µM,[2]; [12],< 0.1%
same,activity at 2000 µM,[3]; [13],< 2%
same,activity of the known enzyme,[4],8.4%
same,relative activity of the known enzyme,[4]; velocity of enzymatic reaction for L-glutamic acid given as 100,8.4
N[C@@H](CO)C(=O)O [L-Serine],activity at 10000 µM,[2]; [11],< 0.1%
same,activity at 2000 µM,[3]; [13],< 0.1%
NCC(=O)O [Glycine],activity at 10000 µM,[2]; [11],< 0.1%
same,activity at 10000 µM,[2]; [12],< 0.1%
same,activity at 2000 µM,[3]; [13],< 0.1%
same,Relative sensitivity ratio,[5],0.4
c1cnc2c(c1)ccc1cccnc12 [o-phenanthroline],activity at 1000 µM,[1]; [7],97.8%
"CCN(CC)C(=S)S [DDTC, diethyldithiocarbamate]",activity at 1000 µM,[1]; [7],101%
N[C@@H](Cc1c[nH]c2ccccc12)C(=O)O [L-Tryptophan],activity at 2000 µM,[3]; [13],< 0.1%
N[C@@H](CC(=O)O)C(=O)O [L-Aspartic acid],activity of the novel enzyme (in words),[2]; pH 6.0,substantially no activity; also recorded: substantially no action
same,activity at 10000 µM,[2]; [11],< 0.1%
same,activity at 10000 µM,[2]; [12],0.6%
same,Relative Activity (%) pH 6.0,"[2]; substrate 10 mM, pH 6.0 (0.1 M acetate buffer), relative to L-glutamic acid",≤ 0.1%
same,activity at 2000 µM,[3]; [13],< 1%
same,activity of the known enzyme,[4],≤ 0.1%
"O=S(=O)(O)c1cc(O)c(O)c(S(=O)(=O)O)c1 [Tiron, 4,5dihydroxy-1,3-benzenedisulfonic acid disodium salt]",activity at 1000 µM,[1]; [7],101%
"O=C(O)c1cc[c]([Hg][Cl])cc1 [PCMB, pchloromercuribenzoate]",inhibition of the activity of the novel enzyme,"[1]; additive 1 mM, pH 7.4",about 45%
same,Relative activity,[1]; [6],55.6
CSCC[C@H](N)C(=O)O [L-Methionine],activity at 10000 µM,[2]; [11],< 0.1%
same,activity at 10000 µM,[2]; [12],< 0.1%
same,activity at 2000 µM,[3]; [13],< 0.1%
N[C@@H](Cc1c[nH]c2ccccc12)C(=O)O [Tryptophan],Relative sensitivity ratio,[5],0.4
N[C@@H](CSSC[C@H](N)C(=O)O)C(=O)O [Cystine],Relative sensitivity ratio,[5],0.4
C[C@H](N)C(=O)O [Alanine],Relative sensitivity ratio,[5],0.5
CC[C@H](C)[C@H](N)C(=O)O [L-Isoleucine],activity at 10000 µM,[2]; [11],< 0.1%
same,activity at 10000 µM,[2]; [12],< 0.1%
same,activity at 2000 µM,[3]; [13],< 0.1%
NC(=O)C[C@H](N)C(=O)O [L-Asparagine],activity at 10000 µM,[2]; [8],< 0.1%
same,activity at 10000 µM,[2]; [9],< 0.1%
same,activity at 2000 µM,[3]; [10],< 1%
NCCC[C@H](N)C(=O)O [L-Ornithine],activity at 10000 µM,[2]; [11],< 0.1%
same,activity at 10000 µM,[2]; [12],< 0.1%
same,activity at 2000 µM,[3]; [13],< 0.1%
[N-]=[N+]=[N-].[Na+] [NaN3],Relative activity,[1]; [6],100.6
N[C@@H](Cc1ccc(O)cc1)C(=O)O [L-Tyrosine],activity at 10000 µM,[2]; [11],< 0.1%
same,activity at 10000 µM,[2]; [12],< 0.1%
N[C@@H](CC(=O)O)C(=O)O [Aspartic acid],Relative sensitivity ratio,[5],1.0
O=C(O)[C@@H]1CCCN1 [L-Proline],activity at 10000 µM,[2]; [11],< 0.1%
same,activity at 10000 µM,[2]; [12],< 0.1%
same,activity at 2000 µM,[3]; [13],< 0.1%
CC(C)[C@H](N)C(=O)O [L-Valine],activity at 10000 µM,[2]; [11],< 0.1%
same,activity at 10000 µM,[2]; [12],< 0.1%
same,activity at 2000 µM,[3]; [13],< 0.1%
N[C@@H](CS)C(=O)O [L-Cysteine],activity at 10000 µM,[2]; [11],< 0.1%
same,activity at 10000 µM,[2]; [12],< 0.1%
same,activity at 2000 µM,[3]; [13],< 0.1%
[I-].[K+] [KI],Relative activity,[1]; [6],100.7
[Ca+2].[Cl-].[Cl-] [CaCl2],Relative activity,[1]; [6],100.0
N[C@@H](CCC(=O)O)C(=O)O [Glutamic acid],Relative sensitivity ratio,[5],100
O=S(=O)([O-])[O-].[Mn+2] [MnSO4],Relative activity,[1]; [6],102.1
N[C@H](CCC(=O)O)C(=O)O [D-Glutamic acid],activity at 10000 µM,[2]; [11],< 0.1%
same,activity of the novel enzyme (in words),[2]; pH 7.4,substantially no activity
same,activity at 10000 µM,[2]; [12],< 0.1%
same,activity at 2000 µM,[3]; [10],< 0.1%
C[C@H](N)C(=O)O [L-Alanine],activity at 10000 µM,[2]; [11],< 0.1%
same,activity at 10000 µM,[2]; [12],< 0.1%
same,activity at 2000 µM,[3]; [13],< 0.1%
N[C@@H](Cc1ccccc1)C(=O)O [L-Phenylalanine],activity at 10000 µM,[2]; [8],< 0.1%
same,activity at 10000 µM,[2]; [9],< 0.1%
same,activity at 2000 µM,[3]; [10],< 0.1%
NCCCC[C@H](N)C(=O)O [L-Lysine],activity at 10000 µM,[2]; [11],< 0.1%
same,activity at 10000 µM,[2]; [12],< 0.1%
same,activity at 2000 µM,[3]; [13],< 0.1%
"CCN1C(=O)C=CC1=O [NEM, N--ethylmaleimide]",activity at 1000 µM,[1]; [7],94.4%
NC(=O)CC[C@H](N)C(=O)O [Glutamine],"Relative sensitivity ratio, acetone treated cell",[5]; acetone treated cell was employed,11
same,Relative sensitivity ratio,[5],108
[Ba+2].[Cl-].[Cl-] [BaCl2],Relative activity,[1]; [6],95.1
"O=C(O)CN(CCN(CC(=O)O)CC(=O)O)CC(=O)O [EDTA, ethylenediaminetetraacetic acid]",activity at 1000 µM,"[1]; pH 7.4, read-out: Relative activity",96.5%
[Cl][Ni][Cl] [NiCl2],Relative activity,[1]; [6],96.5
N=C(N)NCCC[C@H](N)C(=O)O [Arginine],Relative sensitivity ratio,[5],0.6
[Cl-].[Cl-].[Sr+2] [StCl2],Relative activity,[1]; [6],97.2
O=S(=O)([O-])[O-].[Li+].[Li+] [Li2 SO4],Relative activity,[1]; [6],93.8
N=C(N)NCCC[C@H](N)C(=O)O [L-Arginine],activity at 10000 µM,[2]; [11],< 0.1%
same,activity at 10000 µM,[2]; [12],< 0.1%
same,activity at 2000 µM,[3]; [13],< 0.1%
CC(C)C[C@H](N)C(=O)O [L-Leucine],activity at 10000 µM,[2]; [11],< 0.1%
same,activity at 10000 µM,[2]; [12],< 0.1%
same,activity at 2000 µM,[3]; [13],< 0.1%
O=S(=O)([O-])[O-].O=S(=O)([O-])[O-].O=S(=O)([O-])[O-].[Al+3].[Al+3] [Al2 (SO4)3],Relative activity,[1]; [6],93.8
O=S(=O)([O-])[O-].[Zn+2] [ZnSO4],Relative activity,[1]; [6],90.3
[Cl-].[Na+] [NaCl],Relative activity,"[1]; l-glutamic acid oxidase, pH 7.4, 1000 µM",95.8
[Cl-].[K+] [KCl],Relative activity,[1]; [6],111.1
